The values below come from patent publication US5623080A, “Fluorone and pyronin Y derivatives” (Spectra Group Limited, Inc., priority 1995, dated 1997).

A short description of test [1]: double bond conversion (C=C% Conversion) by FTIR. To be noted: DIDMA. On the procedure: (§1) To a resin formulation consisting of 15 parts urethane diacrylate, 15 parts DPHPA, 20 parts TPGDA and 40 parts TMPTA was added DIDMA, initiator and (4-octyloxyphenyl)phenyliodonium hexafluoroantimonate (OPPI). The samples were coated to a thickness of 15 microns and exposed to a 75 W tungsten halogen dental lamp (focused through an optical fiber) at a distance of 0.75 inch at which the Light intensity was about 0.40 W/cm^2. The molar ratios are indicative of the amounts of fluorone to onium salt to amine coinitiator. The double bond conversion was determined by FTIR spectroscopy. The pencil hardness of a given test sample is measured by holding a pencil at a 45° angle to the sample and drawing across it towards the person testing it. Using the pencils in an order from softest to hardest, the first pencil that scratches the surface is assigned as the pencil hardness of the sample. The pencil hardness scale is as follows from softest to hardest: 4B, 3B, 2B, B, HB, H, 2H, 3H, 4H, 6H. For instance, if a 2H pencil is the first pencil to scratch the surface then the pencil hardness is 2H.
(§2) The foregoing study was repeated using 100% butanediol diacrylate, and 100% polyethylene glycol diacrylate (MW=400)(PEGA 400).

Test [2] can be described thus: double bond conversion (C=C% Conversion) by FTIR. To be noted: DIDMA. On the procedure: as §1, §2
This is another data set of the same source.

Test [3] can be described thus: double bond conversion (C=C% Conversion) by FTIR. The following applies: 0.05 wt %; (1:2:3); NPG; 60 sec.

In the case of `CCCCOc1ccc2cc3cc(I)c(=O)c(I)c-3oc2c1` [DIBF, 5,7-diiodo-3-butoxy-6-fluorone], the “C=C% Conversion” value in test [1] (0.05 wt %, (1:0:60), 30 sec) amounted to 30%; in test [1] (0.05 wt %, (1:2:3), 30 sec), 49%; in test [1] (0.10 wt %, (1:2:3), 30 sec) it was 56%; in test [1] (0.10 wt %, (1:2:3), 60 sec), 56%; in test [1] (0.15 wt %, (1:3:3), 30 sec), 58%; in test [2] (0.05 wt %, (1:0:60), 60 sec) it was 50%. Moreover, the “C=C% Conversion” value is given as 61% in test [2] (0.05 wt %, (1:2:3), 60 sec); 90% in test [2] (0.10 wt %, (1:2:3), 60 sec); 60% in test [2] (0.15 wt %, (1:2:3), 10 sec); 84% in test [2] (0.15 wt %, (1:2:3), 30 sec); 90% in test [2] (0.15 wt %, (1:2:3), 60 sec); 43% in test [3].
